{"source": "patent US20090149472A1", "about": "“SALTS OF SUBSTITUTTED PYRAZOLINE COMPOUNDS, THEIR PREPARATION AND USE AND MEDICAMENTS” (Laboratorios Del Dr. Esteve, S.A., priority 2005, published 2009)", "key": {"CB1-Receptor": {"target": "CB1-Receptor (Homo sapiens, UniProt P21554)", "sequence (P21554 whole entry)": "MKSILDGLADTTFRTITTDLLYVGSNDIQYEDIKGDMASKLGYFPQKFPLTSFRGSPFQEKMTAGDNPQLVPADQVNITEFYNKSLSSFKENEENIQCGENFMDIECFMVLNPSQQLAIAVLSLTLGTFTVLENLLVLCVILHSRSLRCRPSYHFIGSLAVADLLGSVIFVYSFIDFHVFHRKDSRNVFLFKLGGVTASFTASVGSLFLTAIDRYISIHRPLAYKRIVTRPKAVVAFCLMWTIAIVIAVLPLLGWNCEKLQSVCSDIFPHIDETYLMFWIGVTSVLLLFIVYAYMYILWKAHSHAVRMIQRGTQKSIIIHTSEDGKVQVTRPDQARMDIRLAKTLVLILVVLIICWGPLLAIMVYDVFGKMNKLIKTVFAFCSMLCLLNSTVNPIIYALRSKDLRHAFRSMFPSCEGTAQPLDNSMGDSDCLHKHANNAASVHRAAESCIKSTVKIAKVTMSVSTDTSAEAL", "assay": "CB1 receptor binding, radioligand [3H]-SR141716A (Table Ia)"}, "[1]": {"assay": "In-vivo antidepressant activity, water despair test", "experimental": "The in-vivo testing for antidepressant activity of the inventive pyrazoline compounds in the water despair test is carried out as described in the publication of E. T. Tzavara et al., “The CB1 receptor antagonist SR141716A selectively increases monoaminergic neurotransmission in the medial prefrontal cortex: implications for therapeutic actons”; Br. J. Pharmacol. 2003, 138(4):544:53. The respective part of the description is hereby incorporated by reference and forms part of the present disclosure.\nThe in-vivo testing for antidepressant activity of the inventive pyrazoline compounds in the water despair test was carried out as described above."}, "male NMRI mice [2]": {"system": "male NMRI mice", "assay": "Mouse tetrad model, agonistic effect", "type": "in vivo", "design": "key to Agonistic effect D: Sedation: % of sedation = mean score (0–3 scale) / 3 × 100; Agonistic effect A: Hot-Plate test / Agonistic effect B: Hypothermia / Agonistic effect C: Catalepsy: unit not given here", "conditions": "5 mg/kg i.v.", "excerpt": "(§1) Substances with affinity for cannabinoid receptors are known to produce a wide range of pharmacological effects. It is also known that intravenous administration of a substance with affinity for cannabinoid receptors in mice produces analgesia, hypothermia, sedation and catalepsy. Individually, none of these effects can be considered as proof that a tested substance has affinity for cannabinoid-receptors, since all of these effects are common for various classes of centrally active agents. However, substances, which show all of these effects, i.e. substances that are active in this so-called tetrad model are considered to have affinity for the cannabinoid receptors.\n(§2) The tetrad model is described, for example, in the publication of A. C. Howlett et al, International Union of Pharmacology XXVII. Classification of Cannabinoid Receptors, Pharmacol Rev 54, 161-202, 2002 and David R. Compton et al., “In-vivo Characterization of a Specific Cannabinoid Receptor Antagonist (SR141716A):Inhibition of Tetrahydrocannbinol-induced Responses and Apparent Agonist Activity”, J. Pharmacol. Exp. Ther. 277, 2, 586-594, 1996. The corresponding parts of the description are hereby incorporated by reference.\n(§3) Male NMRI mice with a weight of 20-30 g (Harlan, Barcelona, Spain) are used in all of the following experiments.\n(§4) Before testing in the behavioral procedures given below, mice are acclimatized to the experimental setting. Pre-Treatment control values are determined for analgesia hot plate latency (in seconds), rectal temperature, sedation and catalepsy.\nIn order to determine the agonistic activity of the substance to be tested, the mice are injected intravenously with the substance to be tested or the vehicle alone. 15 minutes after injection, latency in hot plate analgesia is measured. Rectal temperature, sedation and catalepsy are measured 20 minutes after injection.\n(§5) The hot plate analgesia is determined according to the method described in Woolfe D. et al. “The evaluation of analgesic action of pethidine hydrochloride (Demerol)”, J. Pharmacol. Exp. Ther. 80, 300-307, 1944. The respective description is hereby incorporated by reference and forms part of the present disclosure.\n(§6) The mice are placed on a hot plate (Harvard Analgesimeter) at 55±0.5° C. until they show a painful sensation by licking their paws or jumping and the time for these sensations to occur is recorded. This reading is considered the basal value (B). The maximum time limit the mice are allowed to remain on the hot plate in absence of any painful response is 40 seconds in order to prevent skin damage. This period is called the cut-off time (PC).\n(§7) Fifteen minutes after the administration of the substance to be tested, the mice are again placed on the hot plate and the afore described procedure is repeated. This period is called the post-treatment reading (PT).\n(§8) The degree of analgesia is calculated from the formula:\n(§9) % MPE of Analgesia=(PT−B)/(PC−B)×100\n(§10) Sedation and ataxia is determined according to the method described in Desmet L. K. C. et al. “Anticonvulsive properties of Cinarizine and Flunarizine in Rats and Mice”, Arzneim.-Forsch. (Frug Res) 25, 9, 1975. The respective description is hereby incorporated by reference and forms part of the present disclosure.\n(§11) The chosen scoring system is\n(§12) 0: no ataxia; 1: doubtful; 2: obvious calmness and quiet; 3 pronounced ataxia; prior to as well as after treatment.\n(§13) The percentage of sedation is determined according to the formula:\n(§14) % of sedation=arithmetic mean/3×100\n(§15) Hypothermia is determined according to the method described in David R. Compton et al. “In-vivo Characterization of a Specific Cannabinoid Receptor Antagonist (SR141716A) Inhibition of Tetrahydrocannbinol-induced Responses and Apparent Agonist Activity”, J. Pharmacol Exp Ther. 277, 2, 586-594, 1996. The respective description is hereby incorporated by reference and forms part of the present disclosure. […]"}, "rats": {"system": "rats", "assay": "In-vivo testing for antiobesic activity", "design": "species or system rat", "experimental": "The in-vivo testing for antiobesic activity of the inventive pyrazoline compounds is carried out as described in the publication of G. Colombo et al., “Appetite Suppression and Weight Loss after the Cannabinoid Antagonist SR 141716”; Life Sciences, 63 (8), 113-117, (1998). The respective part of the description is hereby incorporated by reference and forms part of the present disclosure.\nThe in-vivo testing for antiobesic activity was carried out as described above, whereby four different groups of 10 rats each were treated as follows:\nThe second group of rats was treated with the inventive compound N-piperidinyl-5-(4-chlorophenyl)-1-(2,4-dichlorophenyl)-4,5-dihydropyrazole-3-carboxamide according to Example 1. Said compound was administered intraperitoneally to the rats over a period of 14 days in a daily dosis of (10 mg/kg body weight)."}, "[3]": {"target": "T1, transfected human CB1 receptor (Homo sapiens, UniProt P21554)", "T1 construct": "purchased Receptor Biology, Inc", "T1 sequence (P21554 whole entry)": "as above", "assay": "In-vitro affinity to CB1 receptor, radioligand [3H]-CP55940", "type": "binding", "experimental": "(§16) The in-vitro determination of the affinity of the inventive substituted pyrazoline compounds to CB1/CB2-Rezeptors is carried out as described in the publication of Ruth A. Ross, Heather C. Brockie et al., “Agonist-inverse agonist characterization at CB1 and CB2 cannabinoid receptors of L-759633, L759656 and AM630”, British Journal of Pharmacology, 126, 665-672, (1999), whereby the transfected human CB1 and CB2 receptors of Receptor Biology, Inc. are used. The radioligand used for both receptors is [^3H]-CP55940. The respective parts of the description is hereby incorporated by reference and forms part of the present disclosure.\n(§17) The affinity of the inventive substituted pyrazoline compounds to CB1/CB2 receptors was determined as described above."}, "[4]": {"target": "T2, transfected human CB2 receptor (Homo sapiens, UniProt P34972)", "T2 construct": "purchased Receptor Biology, Inc", "T2 sequence (P34972 whole entry)": "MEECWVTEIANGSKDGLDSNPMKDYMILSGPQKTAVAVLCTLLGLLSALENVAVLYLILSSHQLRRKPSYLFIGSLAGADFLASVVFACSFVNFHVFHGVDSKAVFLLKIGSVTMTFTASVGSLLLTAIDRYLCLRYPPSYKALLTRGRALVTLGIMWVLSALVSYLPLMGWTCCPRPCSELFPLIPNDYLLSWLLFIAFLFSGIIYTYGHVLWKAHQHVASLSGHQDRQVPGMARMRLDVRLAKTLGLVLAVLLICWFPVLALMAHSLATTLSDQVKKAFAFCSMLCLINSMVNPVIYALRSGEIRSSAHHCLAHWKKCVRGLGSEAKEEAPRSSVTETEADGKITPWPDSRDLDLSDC", "assay": "In-vitro affinity to CB2 receptor, radioligand [3H]-CP55940", "type": "binding", "experimental": "as §16, §17"}, "male NMRI mice [5]": {"system": "male NMRI mice", "assay": "Mouse tetrad model, antagonistic effect against Win 55212-2", "type": "in vivo", "design": "unit not given here", "conditions": "5 mg/kg i.v. prior to Win 55212-2 1.25 mg/kg i.v.", "excerpt": "as §1, §2, §3, §4\nIn order to determine the antagonistic activity the identical procedure is used as for the determination of the agonistic effects, but with the difference that the substance to be evaluated for its antagonistic activity is injected 5 minutes before the intravenous injection of 1.25 mg/kg Win-55,212 a known cannabinoid-receptor agonist.\nas §5, §6, §7, §8, §9, §10, §11, §12, §13, §14, §15"}, "[6]": {"conditions": "read-out: CB1-Receptor Radioligand: [3H]-SR141716A % Inhibition 10^-7 M"}}, "note": "pKi: −log10 of the molar value. Where two headings read alike, the source gives them in different places."}
{"molecule": "O=C(Nn1cnnc1)C1=NN(c2ccc(Cl)cc2Cl)C(c2ccc(Cl)cc2)C1", "note": "(stereo not drawn)", "values": [{"measurement": "melting point", "value": "134 to 138", "unit": "°C"}]}
{"molecule": "CN1CCN(NC(=O)C2=NN(c3ccc(Cl)cc3Cl)C(c3ccc(Cl)cc3)C2)CC1.Cl", "note": "(stereo not drawn)", "values": [{"measurement": "melting point", "value": "150 to 155", "unit": "°C"}]}
{"molecule": "O=C(NN1CCCCC1)C1=NC(c2ccc(Cl)cc2Cl)[C@@H](c2ccc(Cl)cc2)C1", "note": "(stereo partly drawn)", "values": [{"measurement": "inhibition at 0.1 µM", "setting": "CB1-Receptor; 10^-7 M, [3H]-SR141716A, read-out: CB1-Receptor Radioligand: [3H]-SR141716A % Inhibition 10^-7 M", "value": 82.7, "unit": "%"}]}
{"molecule": "O=C(NN1CCCCC1)C1=NN(c2ccc(Cl)cc2Cl)C(c2ccc(Cl)cc2)C1.O=[N+]([O-])O", "note": "(stereo not drawn)", "values": [{"measurement": "CB1-Receptor Radioligand: [3H]-SR141716A % Inhibition 10^-7 M", "setting": "CB1-Receptor; 10^-7 M, [3H]-SR141716A", "value": 83.6, "unit": "%"}]}
{"molecule": "O=C(NN1CCCCC1)C1=NN(c2ccc(Cl)cc2Cl)[C@@H](c2ccc(Cl)cc2)C1", "values": [{"measurement": "inhibition at 0.1 µM", "setting": "CB1-Receptor; [6]", "value": 83.3, "unit": "%"}]}
{"molecule": "O=C(NN1CCCCC1)C1=NN(c2ccc(Cl)cc2Cl)C(c2ccc(Cl)cc2)C1", "note": "(stereo not drawn) [Example 1, N-piperidinyl-5-(4-chlorophenyl)-1-(2,4-dichlorophenyl)-4,5-dihydro-1H-pyrazole-3-carboxamide]", "values": [{"measurement": "immobility time and struggling time", "setting": "[1]", "value": "positive effects"}, {"measurement": "Agonistic effect A: Hot-Plate test", "setting": "male NMRI mice [2]", "value": 0}, {"measurement": "Agonistic effect B: Hypothermia", "setting": "male NMRI mice [2]", "value": 0}, {"measurement": "Agonistic effect C: Catalepsy", "setting": "male NMRI mice [2]", "value": 0}, {"measurement": "Agonistic effect D: Sedation", "setting": "male NMRI mice [2]", "value": 0}, {"measurement": "body weight", "setting": "rats; 10 mg/kg daily intraperitoneally over 14 days (FIG. 1)", "value": "lowered"}, {"measurement": "food intake", "setting": "rats; 10 mg/kg daily intraperitoneally over 14 days (FIG. 2)", "value": "reduction"}, {"measurement": "body weight effect after the treatment is ended", "setting": "rats; after end of 14 days of 10 mg/kg daily i.p. (FIG. 1)", "value": "also observed after the treatment is ended"}, {"measurement": "pKi", "setting": "[3]", "value": "> 7.60"}, {"measurement": "pKi", "setting": "[4]", "value": "< 6.00"}, {"measurement": "Antagonistic Effect A: Hot-Plate test", "setting": "male NMRI mice [5]", "value": 74}, {"measurement": "Antagonistic Effect B: Hypothermia", "setting": "male NMRI mice [5]", "value": 100}, {"measurement": "Antagonistic Effect C: Catalepsy", "setting": "male NMRI mice [5]", "value": 100}, {"measurement": "Antagonistic Effect D: Sedation", "setting": "male NMRI mice [5]", "value": 100}]}
{"molecule": "O=C(C1=NN(c2ccc(Cl)cc2Cl)C(c2ccc(Cl)cc2)C1)N1CCCCC1", "note": "(stereo not drawn) [Example 5, [5-(4-Chloro-phenyl)-1-(2,4-dichloro-phenyl)-4,5-dihydro-1H-pyrazol-3-yl]-piperidin-1-yl-methanone]", "values": [{"measurement": "Agonistic effect A: Hot-Plate test", "setting": "male NMRI mice [2]", "value": 0}, {"measurement": "Agonistic effect B: Hypothermia", "setting": "male NMRI mice [2]", "value": 50}, {"measurement": "Agonistic effect C: Catalepsy", "setting": "male NMRI mice [2]", "value": 0}, {"measurement": "Agonistic effect D: Sedation", "setting": "male NMRI mice [2]", "value": 0}, {"measurement": "melting point", "value": "105 to 110", "unit": "°C"}, {"measurement": "Antagonistic Effect A: Hot-Plate test", "setting": "male NMRI mice [5]", "value": 50}, {"measurement": "Antagonistic Effect B: Hypothermia", "setting": "male NMRI mice [5]", "value": 40}, {"measurement": "Antagonistic Effect C: Catalepsy", "setting": "male NMRI mice [5]", "value": 20}, {"measurement": "Antagonistic Effect D: Sedation", "setting": "male NMRI mice [5]", "value": 20}]}
{"molecule": "O=C(NN1CCCCC1)C1=NN(c2ccc(Cl)cc2Cl)C(c2ccc(Cl)cc2)C1", "note": "(stereo not drawn) [drawing 82]", "values": [{"measurement": "inhibition at 0.1 µM", "setting": "CB1-Receptor; read-out: CB1-Receptor Radioligand: [3H]-SR141716A % Inhibition 10^-7 M, 10^-7 M, [3H]-SR141716A", "value": 82.6, "unit": "%"}]}
{"molecule": "O=C(NN1CCCCC1)C1=NN(c2ccc(Cl)cc2Cl)C(c2ccc(Cl)cc2)C1", "note": "(stereo not drawn) [drawing 84]", "values": [{"measurement": "inhibition at 0.1 µM", "setting": "CB1-Receptor; [6]", "value": 99.7, "unit": "%"}]}
